# From patent publication US20250115557A1, “TOTAL SYNTHESES OF SELENONEINE, ISO-SELENONEINE, AND ISOMERS” (UNIVERSITÉ LAVAL, priority 2022, published 2025)
# Read-outs that look alike come from different tables or passages of the source.
# Key:
# [1] = tested on: K562-S human leukemia cell line; assay: Preliminary experiments: concentration of toxicant decreasing cell survival by 50%; type: cell-based; settings: K562 cells
# Description: (§1) In vitro protection assays against either methylmercury chloride (MeHgCl) or tert-butyl hydroperoxide (t-BuOOH) were conducted with the K562-S human leukemia cell line (REF #CRL-3343™) obtained from the American Type Culture Collection (ATCC). Cells were cultured in Gibco RPMI 1640 complete growth medium with L-Glutamine (REF #31800-105), NaHCO3 (2 g/L), 10% FBS (REF #080-750), 2% antibiotic-antimycotic from Gibco (REF #15240-062), pH 7.4, and maintained at 37° C. in a 5% CO2 incubator and protected from light.
# (§2) An uptake induction step, in a saline buffer containing 125 mM of NaCl; 25 mM of HEPES-NaOH (pH 7.4); 5.6 mM of D(+)-glucose; 4.8 mM KCl; 1.2 mM of KH2PO4; 1.2 mM of CaCl2; and 1.2 mM of MgSO4, was performed prior to adding selenoneine or ergothioneine to the cell medium.^[22,23] Cells were resuspended in triplicate and pre-incubated in the saline buffer at a density of 2×10^6 cells/mL for 20 minutes at 37° C. under slight agitation. Cells were then incubated during 4 hours in the same buffer and conditions but supplemented with the protective agent of interest—either ergothioneine or selenoneine—in the presence of 0.15 mM of reduced glutathione (GSH). […] Results are expressed as the mean±standard error of the mean of triplicates. […]
# [2] = tested on: human erythroid K562 cells; type: cell-based; settings: for Viability of cells exposed to t-BuOOH: 830 μM t-BuOOH 1 h, protective agent 2.5-150 μM, 4 h pre-incubation, FIG. 3
# Description: (§3) Since selenoneine is the analog of the well-known natural antioxidant and cytoprotectant ergothioneine, its capacity as an antioxidant and cytoprotectant was assessed. To that effect, the capacity of selenoneine to protect cells against the cytotoxic effects induced by t-butyl hydroperoxide (t-BuOOH) and methylmercury chloride (MeHgCl) was assessed. Human erythroid K562 cells expressing the ergothioneine transporter (OCTN1) were exposed to the IC50 values of t-BuOOH and MeHgCl respectively, in the presence of increasing concentrations of either selenoneine or ergothioneine. The cell viability was subsequently assessed using the trypan blue viability exclusion test.^[20]
# as §1
# as §2, with “(GSH). Concentrations of protective agents, either ergothioneine or selenoneine, used for these experiments were 2.5, 5, 25, 50, 100, and 150 μM (FIGS. 3 and 4).” for “(GSH).”
# [3] = tested on: human erythroid K562 cells; assay: Protection against MeHgCl induced cytotoxicity, trypan blue viability exclusion test; type: cell-based; settings: for Viability of cells exposed to MeHgCl: 5 μM MeHgCl overnight (18h), protective agent 2.5-150 μM, 4 h pre-incubation, FIG. 4
# Description: as §3, §1
# An uptake induction step, in a saline buffer containing 125 mM of NaCl; 25 mM of HEPES-NaOH (pH 7.4); 5.6 mM of D(+)-glucose; 4.8 mM KCl; 1.2 mM of KH2PO4; 1.2 mM of CaCl2; and 1.2 mM of MgSO4, was performed prior to adding selenoneine or ergothioneine to the cell medium.^[22,23] Cells were resuspended in triplicate and pre-incubated in the saline buffer at a density of 2×10^6 cells/mL for 20 minutes at 37° C. under slight agitation. Cells were then incubated during 4 hours in the same buffer and conditions but supplemented with the protective agent of interest—either ergothioneine or selenoneine—in the presence of 0.15 mM of reduced glutathione (GSH). Concentrations of protective agents, either ergothioneine or selenoneine, used for these experiments were 2.5, 5, 25, 50, 100, and 150 μM (FIGS. 3 and 4). Cells were then washed twice in cold phosphate-buffered saline (PBS) and resuspended in complete RPMI growth medium and divided into two groups at a density of 1×10^6 cells/mL. One group of cells remained untreated (control group) while the other group was treated with either 830 μM of t-BuOOH, or 5 μM of MeHgCl. These concentrations were determined to decrease cell survival by 50% in preliminary experiments (IC50 values). Cells were then incubated at 37° C. under slight agitation over a period of one (1) hour in the case of t-BuOOH, or overnight (18h) for MeHgCl. The cells were then washed twice in cold PBS before being resuspended in complete RPMI growth medium at a density of 5×10^5 cells/mL. The trypan blue viability exclusion test was then conducted using a Hausser Scientific™ Bright-Line™ Phase Hemacytometer. Viable cells (%)=[total number of viable cells per mL of aliquot/total number of cells per mL of aliquot]×100.^[20] Results are expressed as the mean±standard error of the mean of triplicates. These experiments were repeated twice, and similar results were obtained.
# [4] = S at C-5 (ovothiols) versus S at C-2 (ergothioneine); cited from earlier work
compound,measurement,setting,value
"CC(C)(C)OO [t-BuOOH, t-butyl hydroperoxide]",IC50,[1]; Homo sapiens,830 µM
"C[N+](C)(C)[C@@H](Cc1c[nH]c(=[Se])[nH]1)C(=O)[O-] [selenoneine, (S)-3-(2-selenoxo-2,3-dihydro-1H-imidazol-4-yl)-2-(trimethylammonio) propanoate]",Viability of cells exposed to t-BuOOH,[2],increased with increasing concentrations
same,Concentration resulting in cell viabilities comparable to those of the control groups,"[2]; 830 μM t-BuOOH, K562 cells",≥ 100 µM
same,Viability of cells exposed to MeHgCl,[3],increased with increasing concentrations
same,Concentration resulting in cell viabilities comparable to those of the control groups,"[3]; 5 μM MeHgCl, K562 cells",≥ 100 µM
same,"Protective effect against MeHgCl induced cytotoxicity, comparison","[3]; 5 μM MeHgCl, K562 cells",greater protective effect relative to ergothioneine
"[CH3][Hg][Cl] [MeHgCl, methylmercury chloride]",IC50,[1],5 µM
C[N+](C)(C)[C@@H](Cc1c[nH]c(=S)[nH]1)C(=O)[O-] [ergothioneine],Viability of cells exposed to t-BuOOH,[2],increased with increasing concentrations
same,Viability of cells exposed to MeHgCl,[3],increased with increasing concentrations
same,Cell viability versus control groups at concentrations of 150 μM or higher,"[3]; 5 μM MeHgCl, K562 cells, protective agent 150 μM or higher",did not result in cell viabilities comparable to those of the control groups
same,pKa value,[4],8.7
